Test results reported in US6200985A, “Rapamycin derivatives” (Novartis AG, priority 1995, dated 2001).

Experiments:
rat kidney allograft = assay: Chronic allograft rejection, rat kidney allograft model; format: in vivo; details: per os, 0.5 to 2.5 mg/kg, 69-72 days starting day 53-64 after transplantation
Protocol: 10. Chronic Allogaft Rejection
The kidney of a male DA (RT1^a) rat is orthotopically transplanted into a male Lewis (RT1^l) recipient. In total 24 animals are transplanted. All animals are treated with cyclosporine A at 7.5 mg/kg/day per os for 14 days starting on the day of transplantation, to prevent acute cellular rejection. Contralateral nephrectomy is not performed. Each experimental group treated with a distinct dose of a compound of formula I or placebo comprises six animals.
Starting at day 53-64 after transplantation, the recipient animals are treated per os for another 69-72 days with a compound of formula I or receive placebo. At 14 days after transplantation animals are subjected to graft assessment by magnetic resonance imaging (MRI) with perfusion measurement of the kidneys (with comparison of the grafted kidney and the own contralateral kidney). This is repeated at days 53-64 after transplantation and at the end of the experiment. The animals are then autopsied. Rejection parameters such as MRI score, relative perfusion rate of the grafted kidney and histologic score of the kidney allograft for cellular rejection and vessel changes are determined and statistically analyzed.

[1] = test system: myointimal proliferation in balloon-injured carotid artery; assay: Angioplasty (balloon catheterization of the carotid artery); format: in vivo; details: rat, per os, daily dose 0.5 to 2.5 mg/kg, day -3 to day +14
Protocol: Under Isofluorane anaesthesia, a Fogarty 2F catheter is introduced into the left common carotid artery via the external carotid and inflated (distension=10 μl H2 O). The inflated balloon is withdrawn along the length of the common carotid three times, the latter two times whilst twisting gently to obtain a uniform de-endothelialization. The cathether is then removed, a ligature placed around the external carotid to prevent bleeding and the animals allowed to recover.
2 groups of 12 RoRo rats (400 g, approximately 24 weeks old) are used for the study: one control group and one group receiving the compound to be tested. The rats are fully randomized during all handling, experimental procedures and analysis.
The compound to be tested is administered p.o. (gavage) starting 3 days before balloon injury (day -3) until the end of the study, 14 days after balloon injury (day +14). Rats are kept in individual cages and allowed food and water ad libidum. […]
Sections 1-2 μm thick are cut from the middle section of each carotid with a hard metal knife on a rotary microtome and stained for 2 min with Giemse-stain. About 5 sections from each carotid are thus prepared and the cross-sectional areal of the media, neointima and the lumen morphometrically evaluated by means of an image analysis system (MCID, Toronto, Canada).

Balb/c spleen cells = assay: Mixed lymphocyte reaction (MLR), murine; format: cell-based, mouse; details: inhibition of Balb/c spleen cell proliferation, 5 days co-incubation with irradiated CBA spleen cells; relative to rapamycin
Description: 1. Mixed lymphocyte reaction (MLR)
The Mixed Lymphocyte Reaction was originally developed in connection with allografts, to assess the tissue compatibility between potential organ donors and recipients, and is one of the best established models of immune reaction in vitro. […] The irradiated allogeneic cells induce a proliferative response in the Balb/c spleen cells which can be measured by labeled precursor incorporation into the DNA. […] The inhibitory capacity of the test sample may be compared to rapamycin and expressed as a relative IC50 (i.e. IC50 test sample/IC50 rapamycin).

[2] = molecular target: T1, recombinant human macrophilin-12 (FKBP-12) (Homo sapiens, UniProt P62942); assay: Macrophilin binding assay (MBA), competitive binding against immobilized FK-506; details: inhibition of biot-MAP binding to immobilized FK-506
T1 construct: biotin (label)
Description: 3. Macrophilin binding assay (MBA)
Rapamycin and the structurally related immunosuppressant, FK-506, are both known to bind in vivo to macrophilin-12 (also known as FK-506 binding protein or FKBP-12), and this binding is thought to be related to the immunosuppressive activity of these compounds. […] In this assay, FK-506 coupled to BSA is used to coat microtiter wells. Biotinylated recombinant human macrophilin-12 (biot-MAP) is allowed to bind in the presence or absence of a test sample to the immobilized FK-506. After washing (to remove non-specifically bound macrophilin), bound biot-MAP is assessed by incubation with a streptavidin-alkaline phosphatase conjugate, followed by washing and subsequent addition of p-nitrophenyl phosphate as a substrate. The read-out is the OD at 405 nm. Binding of a test sample to biot-MAP results in a decrease in the amount of biot-MAP bound to the FK-506 and thus in a decrease in the OD405. A dilution series of the test sample allows determination of the concentration resulting in 50% inhibition of the biot-MAP binding to the immobilized FK-506 (IC50). The inhibitory capacity of a test sample is compared to the IC50 of free FK506 as a standard and expressed as a relative IC50 (i.e., IC50 test sample/IC50 -free FK506).

[3] = test system: interleukin-6 (IL-6)-dependent mouse hybridoma cell line; assay: IL-6 mediated proliferation (IL-6 PROL); format: cell-based; details: inhibition of IL-6 dependent hybridoma proliferation, (3-H)thymidine incorporation; relative to rapamycin
Protocol: 2. IL-6 mediated proliferation (IL-6 PROL)
The capacity of the Compounds of formula I to interfere with growth factor, associated signalling pathways is assessed using an interleukin-6 (IL-6)-dependent mouse hybridoma cell line. The assay is performed in 96-well microtiter plates. […] Following a 66 hour incubation in the absence or presence of a test sample, cells are pulsed with 1 μCi (3-H)thymidine/well for another 6 hours, harvested and counted by liquid scintillation. (3-H)thymidine incorporation into DNA correlates with the increase in cell number and is thus a measure of cell proliferation. […] The inhibitory capacity of the test sample may be compared to rapamycin and expressed as a relative IC50 (i.e. test sample/IC50 rapamycin).

T1 sequence (P62942 whole entry): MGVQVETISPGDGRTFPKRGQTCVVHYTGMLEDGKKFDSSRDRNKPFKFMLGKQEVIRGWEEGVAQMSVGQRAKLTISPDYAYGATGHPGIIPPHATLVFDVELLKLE

Compound | rejection parameters (MRI score, relative perfusion rate of grafted kidney, histologic score) (rat kidney allograft) | myointimal proliferation [1] | relative IC50 (IC50 test sample/IC50 rapamycin) (Balb/c spleen cells) | relative IC50 (IC50 test sample/IC50 free FK506) [2] | relative IC50 (test sample/IC50 rapamycin) [3]
CO[C@H]1C[C@@H]2CC[C@@H](C)[C@@](O)(O2)C(=O)C(=O)N2CCCC[C@H]2C(=O)O[C@H]([C@H](C)C[C@@H]2CC[C@@H](O)[C@H](OC)C2)CC[C@H](C)/C=C(\C)[C@@H](O)[C@@H](OC)C(=O)[C@H](C)C[C@H](C)/C=C/C=C/C=C/1C [Example 1, 32-Deoxorapamycin] | reduction in all above mentioned rejection parameters | inhibit myointimal proliferation | 0.3 | 1 | 0.2
CCC#CCO[C@H]1C[C@@H]2CC[C@@H](C)[C@@](O)(O2)C(=O)C(=O)N2CCCC[C@H]2C(=O)O[C@H]([C@H](C)C[C@@H]2CC[C@@H](O)[C@H](OC)C2)C[C@H](O)[C@H](C)/C=C(\C)[C@@H](O)[C@@H](OC)C(=O)[C@H](C)C[C@H](C)/C=C/C=C/C=C/1C [Example 2, 16-pent-2-ynyloxy-32(S)-dihydro rapamycin] | reduction in all above mentioned rejection parameters | inhibit myointimal proliferation | 0.08 | 2.8 | 0.09
CO[C@H]1C[C@@H]2CC[C@@H](C)[C@@](O)(O2)C(=O)C(=O)N2CCCC[C@H]2C(=O)O[C@H]([C@H](C)C[C@@H]2CC[C@@H](OCCO)[C@H](OC)C2)C[C@H](O)[C@H](C)/C=C(\C)[C@@H](O)[C@@H](OC)C(=O)[C@H](C)C[C@H](C)/C=C/C=C/C=C/1C [Example 5, (32S)-dihydro40-(2-hydroxy)ethyl-rapamycin] | – | – | – | 25 | –
